Results on 23 molecules are retold here after article PMC7251097, “Aspartate/asparagine-β-hydroxylase: a high-throughput mass spectrometric assay for discovery of small molecule inhibitors” (Scientific Reports, 2020).

This assay addresses T1, His6-AspH315–758 (human aspartate/asparagine-β-hydroxylase, AspH) (Homo sapiens, UniProt Q12797).
T1 construct: N-Terminally His6-tagged human AspH315–758 (His6-AspH315–758) was produced in E. coli BL21 (DE3) cells; made in house; host or cells: E. coli BL21 (DE3), pET-28a(+) vector
T1 sequence (Q12797 315-758): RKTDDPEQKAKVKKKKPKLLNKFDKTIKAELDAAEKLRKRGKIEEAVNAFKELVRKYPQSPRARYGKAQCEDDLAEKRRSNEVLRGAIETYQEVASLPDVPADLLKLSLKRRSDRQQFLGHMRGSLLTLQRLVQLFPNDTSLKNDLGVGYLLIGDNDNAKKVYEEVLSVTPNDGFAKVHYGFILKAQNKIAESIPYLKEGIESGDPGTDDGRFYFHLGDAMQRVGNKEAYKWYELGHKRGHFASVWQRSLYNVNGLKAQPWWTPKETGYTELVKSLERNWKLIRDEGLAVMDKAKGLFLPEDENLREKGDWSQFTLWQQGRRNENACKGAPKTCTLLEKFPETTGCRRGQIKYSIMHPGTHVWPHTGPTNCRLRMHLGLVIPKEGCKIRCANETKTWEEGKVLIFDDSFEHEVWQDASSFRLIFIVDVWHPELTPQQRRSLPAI
Put plainly: SPE-MS AspH inhibition assay (LOPAC screen at fixed 20 μM and IC50 dose-response), hydroxylation of cyclic peptide hFX-CP101–119. In kind it is biochemical.

Setting [1] is: LOPAC compound at fixed 20 uM, plate 1, normalised to DMSO and 2,4-PDCA controls.
The mark [2] stands for this setting: LOPAC compound at fixed 20 uM, substrate conversion, plate 1.
The mark [3] stands for this setting: LOPAC compound at 20uM, plate 3, conversion of substrate peptide.
Where [4] appears, read: plate 5 (Pfitzer), test compounds at fixed 20 μM.
Where [5] appears, read: plate 5 (Pfitzer), test compounds at fixed 20 μM, mean conversion DMSO 32.88.
Where [6] appears, read: LOPAC Plate 4, compound at 20 uM, substrate conversion.

Counter-ions that a name gives are not always drawn. Like-named read-outs stand apart in the source and are kept apart here.

For orientation: inhibition means the relative decrease from the control value, in per cent. As to `CC(C)c1cccc(C(C)C)c1O` [Propofol], the “Plate 2 (% conversion)” value is 38.08%. The inhibition at 20 µM (read-out: Plate 2 (% inhibition)) is -6.34%. Usually % inhibition stands for the drop in the measured response relative to a control, in per cent. With `O=C(O)[C@H]1CCCN[C@H]1C(=O)O` (racemic) [(±)-cis-Piperidine-2,3-dicarboxylic acid], the “% conversion” value came to 39.41%. Besides, where the note is “20 µM”, the “% inhibition” value is -8.61%. On the same counts, the results for `Br.COc1ccc(-c2ccc(=N)n(CCCC(=O)O)n2)cc1` [SR-95531] are 38.69% and -6.50%. As to `NC(=O)c1ccccc1` [Benzamide], the “Plate 1 (% inhibition)” value under setting [1] is reported as -4.66%. Moreover, the “Plate 1 (% conversion)” value under setting [2] was 37.44%. As for Maraviroc, the “Plate 1 (% conversion)” value turned out to be 50.71%, the “Plate 1 (% inhibition)” value was -44.18%, the “Plate 5 (% conversion)” value stood at 49.04% and the “Plate 5 (% inhibition)” value was -37.39%. On to `CC1=C(C(=O)O)N2C(=O)[C@@H](NC(=O)[C@H](N)c3ccccc3)[C@H]2SC1.O` [Cephalexin hydrate], for which the “Plate 1 (% inhibition)” value under setting [1] turned out to be 14.49%.

Regarding `O=C(N[C@H]1CN2CCC1CC2)c1cc2ccoc2cn1` [PHA-543613], the “Plate 3 (% conversion)” value under setting [3] is on record as 37.15%. Besides, under setting [4], the “Plate 5 (% inhibition)” value was found to be 12.80%. In addition, under setting [5], the “Plate 5 (% conversion)” value came to 31.96%. `Cc1c(-c2ccc(-c3ccccc3F)cc2)nc2ccc(F)cc2c1C(=O)[O-].[Na+]` [Brequinar sodium salt hydrate]: the “Plate 1 (% inhibition)” value under setting [1] amounted to 11.82%. The “Plate 1 (% conversion)” value under setting [2] was 31.90%. Usually Inhibition stands for the relative decrease from the control value, in per cent. High values mean strong suppression, low ones little suppression. In the case of `Oc1ccc2ccccc2c1SSc1c(O)ccc2ccccc12` [IPA-3, reference compound], the “Inhibition at 20 µM [%]” value (AspH activity, fixed compound concentration 20 μM, initial LOPAC screen, 0.5%v/v DMSO) is listed as 100.0%. The “% conversion” value under setting [6] came out at 2.34%. Regarding `Clc1ccc2nsnc2c1NC1=NCCN1` [Tizanidine hydrochloride], the “% conversion” value under setting [6] was 37.51%. Consider `COc1cc(OC)c(C=C2C(O)=Nc3ccccc32)c(OC)c1` [IC 261], for which the “% conversion” value came out at 29.42%. As to `Nc1nc2c(cnn2CCc2ccccc2)c2nc(-c3ccco3)nn12` [SCH 58261], under setting [6], the “% conversion” value was 31.57%. For `O=C(O)CNC(=O)C(CS)Cc1ccccc1` (racemic) [DL-Thiorphan], the “% conversion” value stood at 36.55% and the inhibition at 20 µM is -0.22%. `CC(=O)/C=C1\C(=O)N(C)c2ccccc21` [Supercinnamaldehyde]: the “Plate 1 (% inhibition)” value under setting [1] was -3.46%. In addition, the “Plate 1 (% conversion)” value under setting [2] was 37.03%. With `CCCCCCCC/C=C\CCCCCCCC(=O)O` [Oleic Acid], the “Plate 3 (% conversion)” value is on record as 10.92%. In the case of `CC(=O)NC[C@H]1CN(c2ccc(N3CCOCC3)c(F)c2)C(=O)O1` [Linezolid], under setting [1], the “Plate 1 (% inhibition)” value is on record as -10.54%. In addition, the “Plate 1 (% conversion)” value under setting [2] was 39.41%. Further, the “Plate 5 (% inhibition)” value under setting [4] is on record as 44.21%. For the same molecule, the “Plate 5 (% conversion)” value under setting [5] is on record as 21.27%.

Consider `CN1CC(=O)NC1=NC(=O)Nc1cccc(Cl)c1` [Fenobam], for which the “Plate 3 (% conversion)” value under setting [3] was found to be 36.37%. As for `O=C(/C=C/c1ccc(O)cc1)CC(=O)/C=C/c1ccc(O)cc1` [Bisdemethoxycurcumin, reference compound], the inhibition at 20 µM (AspH activity, fixed compound concentration 20 μM, initial LOPAC screen, 0.5%v/v DMSO, read-out: Inhibition at 20 µM [%]) stood at 99.7%.

Take `O=[N+]([O-])c1cc(O)c(O)c([N+](=O)[O-])c1` [3,5-Dinitrocatechol, reference compound]: the “Plate 2 (% conversion)” value came out at 2.07%. For the same molecule, the “Plate 2 (% inhibition)” value (20 µM) was found to be 101.20%. On to `CN1CCN(C2Cc3ccccc3Sc3ccc(Cl)cc32)CC1.O=C(O)/C=C\C(=O)O` (racemic) [(±)-Octoclothepin maleate], for which the “Plate 3 (% conversion)” value came to 45.22%. For the molecule `CNCCc1ccc(O)c(O)c1.Cl` [N-Methyldopamine hydrochloride], the “Plate 2 (% conversion)” value turned out to be 9.52%. Also, under “LOPAC compound at 20uM, plate 2, normalised to DMSO and 2,4-PDCA controls”, the “Plate 2 (% inhibition)” value stood at 78.96%.

With `CC(C)NC[C@H](O)COc1ccc(CC(N)=O)cc1` [S(-)-Atenolol], the “Plate 1 (% inhibition)” value under setting [1] is listed as -5.71%. Besides, under setting [2], the “Plate 1 (% conversion)” value was 37.79%. With `C=C1C[C@@]23CC[C@H]4[C@@](C)(CCC[C@@]4(C)C(=O)O)[C@@H]2CC[C@]1(O)C3` [Steviol], the “% conversion” value under setting [6] is given as 37.50%. Besides, the inhibition at 20 µM (LOPAC Plate 4, compound at 20 uM, read-out: % inhibition) was -3.02%.
